Data from paper PMC9775191, “A Subset Screen of the Compounds Australia Scaffold Library Identifies 7-Acylaminodibenzoxazepinones as Potent and Selective Hits for Anti-Giardia Drug Discovery” (Biomedicines, 2022).

System: G. duodenalis BRIS/91/HEPU/1279
Assay: Primary Giardia screen at 10 µM (live-cell imaging, automated counting)
Format: cell-based, Giardia duodenalis
Settings: 24 h
How it was run: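 One concentration, 10 μM, is screened per compound in singlicate under microaerophilic gas (3% O2, 5% CO2, N2). Inhibition comes from automated image-based counts at 24 and 48 h, relative to 0.2% DMSO controls.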

Row | Structure (SMILES) | Average % Inhibition 24h [%]
1 | Cc1ccc2c(c1)N=C(c1ccc(C)o1)N=C(c1cccs1)N2 [SN00785905] | 15.2
2 | CCCNC(=O)c1sc(-n2nc(C)c(Cl)c2C)nc1C [SN00786172] | 7.3

Same assay, conditions: 24 h, first singlicate assay

Row | Structure (SMILES) | % Inhibition n=1 24h [%]
3 | Cc1ccc2c(c1)N=C(c1ccc(C)o1)N=C(c1cccs1)N2 [SN00785905] | 22.4
4 | CCCNC(=O)c1sc(-n2nc(C)c(Cl)c2C)nc1C [SN00786172] | 14.5

Same assay, conditions: 24 h, re-assessment

Row | Structure (SMILES) | % Inhibition n=2 24h [%]
5 | Cc1ccc2c(c1)N=C(c1ccc(C)o1)N=C(c1cccs1)N2 [SN00785905] | 8.0
6 | CCCNC(=O)c1sc(-n2nc(C)c(Cl)c2C)nc1C [SN00786172] | 0.0

Same assay, conditions: 48 h

Row | Structure (SMILES) | Average % Inhibition 48h [%]
7 | Cc1ccc2c(c1)N=C(c1ccc(C)o1)N=C(c1cccs1)N2 [SN00785905] | 54.6
8 | CCCNC(=O)c1sc(-n2nc(C)c(Cl)c2C)nc1C [SN00786172] | 27.0

Same assay, conditions: 48 h, first singlicate assay

Row | Structure (SMILES) | % Inhibition n=1 48h [%]
9 | COc1ccc(Cn2cccc2C2=NC(C)(C)CO2)cc1 [SN00784853] | 19.2
10 | CSc1cccc(NC(=O)CN2C(=O)C(C)N=C(c3ccccc3)c3ccccc32)c1 (stereo not drawn) [SN00784896] | 0.0
11 | CCN1CCN(C(=O)c2ccc(N3CCCC3=O)cc2)CC1 [SN00784919] | 8.8
12 | CCCCNC(=O)c1cccc(N2CCCC2=O)c1 [SN00784930] | 4.7
13 | Cc1nc(N(C)C)ncc1C(=O)O [SN00784957] | 3.0
14 | CC(=O)c1cccc(NC(=O)C2CCCN(S(=O)(=O)c3c(C)noc3C)C2)c1 (stereo not drawn) [SN00784980] | 0.0
15 | CCc1cccc(NC(=O)C2CCCN(S(=O)(=O)c3c(C)noc3C)C2)c1 (stereo not drawn) [SN00784983] | 0.0
16 | COc1ccc(-n2nc(C(=O)NCc3ccc(C)cc3)c3c4ccccc4n(C)c3c2=O)cc1 [SN00785076] | 5.1
17 | CCCN1C(=O)c2cc(C(=O)Nc3ccc(F)cc3)ccc2C1Nc1ccc(F)cc1 (stereo not drawn) [SN00785169] | 13.3
18 | CCCN1C(=O)c2cc(C(=O)Nc3ccccc3OC)ccc2C1Nc1ccccc1OC (stereo not drawn) [SN00785171] | 21.9
19 | CC(=O)N1CCc2cc(C(=O)CN3CCN(c4ccc(C(F)(F)F)cc4[N+](=O)[O-])CC3)ccc21 [SN00785201] | 3.8
20 | CC(=O)N1CCc2cc(C(=O)CN3CC(C)CC(C)C3)ccc21 (stereo not drawn) [SN00785210] | 19.3
21 | CCn1c(C)c(C2=CCN(S(=O)(=O)c3ccc(F)cc3)CC2)c2ccccc21 [SN00785221] | 17.2
22 | Cc1ccc(-c2[nH]c(-c3ccccc3)nc2S(=O)(=O)CC(=O)Nc2ccccc2)cc1 [SN00785272] | 11.7
23 | COc1ccc(-c2nc(S(=O)(=O)CC(=O)Nc3ccc(F)cc3)c(-c3ccc(OC)cc3)[nH]2)cc1 [SN00785276] | 12.5
24 | CCc1noc2nc(C)nc(N3CCCC(C(=O)O)C3)c12 (stereo not drawn) [SN00785300] | 0.0
25 | COc1ccc(S(=O)(=O)n2nc(-c3cc(OC)c(OC)c(OC)c3)cc2N)cc1OC [SN00785320] | 21.7
26 | COCCNC(=O)N1Cc2c(C)nn(-c3ccccc3)c2-n2cccc2C1c1cccc(C)c1 (stereo not drawn) [SN00785355] | 10.0
27 | CCN1c2cc(C)ccc2-n2cccc2C12CCN(S(=O)(=O)c1ccc(C)cc1)CC2 [SN00785371] | 10.4
28 | CC(C)CCNC(=O)C1(C)CCc2ccccc2C(=O)N1Cc1ccccc1F (stereo not drawn) [SN00785390] | 14.6
29 | Cc1ccc(C(=O)N2CCN(c3nc4ccccc4n4cccc34)CC2)cc1 [SN00785395] | 25.5
30 | Cc1cccc(C)c1NC(=O)Cn1c(=O)n(CCc2c[nH]c3ccccc23)c(=O)c2cccnc21 [SN00785456] | 0.5
31 | COc1ccc(S(=O)(=O)N2CC=C(C(=O)Nc3ccc(Cl)cc3)CC2)cc1 [SN00785473] | 0.0

Row | Structure (SMILES) | % Inhibition n=1 48h [%]
32 | COc1ccc(S(=O)(=O)N2CC=C(C(=O)NCc3ccc(C)cc3)CC2)cc1 [SN00785474] | 23.4
33 | CCC1CCCCN1C(=O)Cn1c(C(=O)OC)cc2occc21 (stereo not drawn) [SN00785479] | 8.8
34 | Cn1c(C(=O)N2CCCC(C(=O)NCCc3ccccc3)C2)cc2sccc21 (stereo not drawn) [SN00785483] | 4.8
35 | CCOC(=O)c1cc2n(n1)CC(C)(C(=O)NCCC(C)C)N(CCc1cccs1)C2=O (stereo not drawn) [SN00785530] | 6.6
36 | CN(CCCN)C(=O)c1ccc2c(=O)n3c(nc2c1)CCCCC3 [SN00785585] | 25.4
37 | CC1CCc2nn(CC(=O)NC(C)c3ccccc3)cc2C1 (stereo not drawn) [SN00785614] | 0.0
38 | Cc1cc(=O)n2nc(N(C)CC(=O)NC3CCCc4ccccc43)sc2n1 (stereo not drawn) [SN00785631] | 35.0
39 | CCCc1cc(=O)n2nc(N(C)CC(=O)NCCCN3CCCC3=O)sc2n1 [SN00785642] | 4.1
40 | CCCCCCNC(=O)Cc1c(C)nc2c(-c3ccccc3)c(C)nn2c1C [SN00785656] | 17.0
41 | CCC(=O)N1N=C2C3CCN(CC3)[C@@H]2[C@@H]1c1cccc(OC)c1OC [SN00785687] | 13.8
42 | COc1ccc(C(=O)c2c(N)c(-c3nc(-c4cc(OC)ccc4OC)cs3)c3ccccn23)cc1 [SN00785721] | 0.0
43 | O=S(=O)(c1ccc(Br)cc1)c1nc(-c2ccccc2)oc1N1CCOCC1 [SN00785745] | 4.0
44 | Cc1ccc2nc(C3=C(N)N(C4CCCCCC4)CC3=O)[nH]c2c1 [SN00785773] | 29.0
45 | Cc1ccc([N+](=O)[O-])cc1N1CC(=O)C(c2nc3ccccc3[nH]2)=C1N [SN00785776] | 21.1
46 | CN(C)CCn1c(=O)c2[nH]cnc2n(C)c1=O [SN00785782] | 13.4
47 | O=C1c2ccccc2C(=O)N1CC(=O)n1nc(-c2cccnc2)nc1NCc1cccs1 [SN00785806] | 3.6
48 | Cc1cc(N2CCN(c3ccccc3F)CC2)n2cnnc2n1 [SN00785845] | 30.4
49 | CN(Cc1ccccc1)c1c2c(nc3nncn13)CCC2 [SN00785855] | 14.3
50 | Cc1ccc2c(c1)N=C(c1ccc(C)o1)N=C(c1cccs1)N2 [SN00785905] | 69.6
51 | Fc1ccc(C2=NC(c3cccs3)=Nc3cc(Cl)ccc3N2)cc1 [SN00785914] | 0.0
52 | O=C1O[C@@H]2C[C@H]3C[C@@H]2[C@@H]1[C@H]3C(=O)Nc1ccc(C(=O)N2CC=C(c3ccccc3)CC2)cc1 [SN00785926] | 11.8
53 | CN1CC(c2nc3ccccc3[nH]2)CC1=O (stereo not drawn) [SN00785951] | 0.0
54 | CCCCS(=O)(=O)N1CCC(c2nnnn2-c2ccc(C)cc2)CC1 [SN00785962] | 0.0

Row | Structure (SMILES) | % Inhibition n=1 48h [%]
55 | Cc1ccccc1NC(=O)c1ccc2c(c1)CCN2S(C)(=O)=O [SN00785973] | 31.2
56 | Cc1ccc(CNC(=O)c2ccc3c(c2)CCN3S(=O)(=O)c2ccc(C)cc2)cc1 [SN00785985] | 38.5
57 | Cc1cccc(NC(=O)NC2CCN(c3nc(C)cc(C)n3)CC2)c1 [SN00786006] | 33.8
58 | CCOc1cc(C2OCCn3c(-c4ccccc4)c4c(=O)n(C)c(=O)n(C)c4c32)ccc1O (stereo not drawn) [SN00786012] | 8.5
59 | CCCOc1ccc(C2OCCn3c(-c4ccc(OC)cc4)c4c(=O)n(C)c(=O)n(C)c4c32)cc1 (stereo not drawn) [SN00786016] | 14.8
60 | CC(=O)c1cc2c(cc1NC(=O)c1cn(-c3ccc(F)cc3)nn1)OCO2 [SN00786071] | 7.4
61 | Cc1ccccc1NC(=O)c1nc(S(C)(=O)=O)ncc1N(Cc1ccco1)Cc1sccc1C [SN00786086] | 11.7
62 | CCS(=O)(=O)c1ncc(N(Cc2ccco2)Cc2ccccc2F)c(C(=O)Nc2ccccc2)n1 [SN00786098] | 17.4
63 | CCn1c(Cn2cccn2)nc2cc(NC(C)=O)ccc21 [SN00786137] | 11.6
64 | CCCNC(=O)c1sc(-n2nc(C)c(Cl)c2C)nc1C [SN00786172] | 52.5
65 | Cc1nc(-n2nc(C)c(Cc3ccccc3Cl)c2C)sc1C(=O)NC(C)C [SN00786185] | 0.0
66 | Cc1ccc(CNc2nc(-c3ccco3)nn2C(=O)C(C)C)cc1 [SN00786221] | 11.1
67 | Cc1ccc(CNc2nc(-c3ccco3)nn2C(=O)c2cccc([N+](=O)[O-])c2)cc1 [SN00786222] | 6.6
68 | CN(C)C1(CNC(=O)COc2ccc(Br)cc2)CCCCC1 [SN00786247] | 5.1
69 | Cc1ccc(OCC(=O)NCC2(N3CCN(C)CC3)CCCCC2)cc1 [SN00786260] | 9.4
70 | CC1CCCCN1S(=O)(=O)c1ccc(NC(=O)c2cc(-c3cccs3)on2)cc1 (stereo not drawn) [SN00786280] | 10.1
71 | Cc1ccc(NC(=O)c2cc(-c3ccc4c(c3)OCCO4)on2)cc1C [SN00786283] | 2.9
72 | O=C(NCc1ccccc1)c1nc[nH]c1C(=O)NCc1cccc(C(F)(F)F)c1 [SN00786288] | 20.4
73 | COCCNC(=O)c1nc[nH]c1C(=O)NC(C)C [SN00786292] | 8.3
74 | CCCCNc1ncccc1-c1nc(-c2ccc(C)cc2)no1 [SN00786331] | 25.3
75 | Cc1nc(N2CCCCC2)cc(N2CCN(C(=O)c3cccc(F)c3)CC2)n1 [SN00786431] | 7.0
76 | Cc1ccc(Nc2cc(N3CCN(S(=O)(=O)c4ccc(C)c(C)c4)CC3)nc(C)n2)cc1 [SN00786472] | 20.7

Same assay, conditions: 48 h, re-assessment

Row | Structure (SMILES) | % Inhibition n=2 48h [%]
77 | Cc1ccc2c(c1)N=C(c1ccc(C)o1)N=C(c1cccs1)N2 [SN00785905] | 39.6
78 | CCCNC(=O)c1sc(-n2nc(C)c(Cl)c2C)nc1C [SN00786172] | 1.5
